Reference: BigSolDB 2.1

CN=C(NC#N)NCCSCc1nc[nH]c1C
solubility (mole fraction)
Settings | 281.04 K | 285.25 K | 289.65 K | 292.46 K | 296.7 K | 297.26 K | 306.76 K | 309.1 K | 311.34 K
in ethanol | – | – | – | – | – | 0.005 | 0.0081 | 0.0091 | 0.0101
in methanol | 0.0082 | 0.0098 | 0.0119 | 0.0138 | 0.0166 | – | – | – | –

CC(=O)Nc1ccc(O)cc1
Settings | solubility (mole fraction)
in ethanol, 284.49 K | 0.0444
in ethanol, 288.38 K | 0.0471
in ethanol, 293.54 K | 0.0508
in ethanol, 295.69 K | 0.0539
in isopropanol, 273.5 K | 0.0256
in isopropanol, 289.99 K | 0.0372
in isopropanol, 302.5 K | 0.0473
in n-octanol, 262.78 K | 0.0057
in n-octanol, 275.42 K | 0.0082
in n-octanol, 285.72 K | 0.0104
in n-octanol, 301.15 K | 0.0151

CC(=O)Oc1ccccc1C(=O)O
Settings | solubility (mole fraction)
in ethanol, 274.95 K | 0.0246
in ethanol, 292.45 K | 0.0487
in isopropanol, 274.9 K | 0.0163
in isopropanol, 281.7 K | 0.0223
in isopropanol, 283.75 K | 0.0245
in n-octanol, 272.14 K | 0.01
in n-octanol, 281.45 K | 0.0152
in n-octanol, 291.53 K | 0.0235
in n-octanol, 307.12 K | 0.0434
